Source: PubChem BioAssay (NCI)
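Interpolation was linear, between the two tested concentrations surrounding the appropriate level; five concentrations were tested over 48 hours in 96-well plates. The concentration for 50% growth inhibition is given as GI50. TGI is the concentration that stops growth completely.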 Where a SMILES comes first, the peptide text is derived from it. Bridges are numbered along the chain shown (N, C = ends). [ ]: non-standard residue; d: D form. The star is where a group is joined. ξ: configuration not given here. ξDab(CH2SO3H) = NC(CCNCS(=O)(=O)O)C(=O)O; Heptanoyl(6-Me) = CC(C)CCCCC(=O)*; Dab = NCC[CH](N)C(=O)O

What was measured:
Experiment in all cases: inhibition of tumour cell growth, NCI panel, 48 h
786-0 renal = test system: 786-0 renal
A498 renal = test system: A498 renal
A549 NSCLC = test system: A549 NSCLC
ACHN renal = test system: ACHN renal
BT-549 breast = test system: BT-549 breast
CAKI-1 renal = test system: CAKI-1 renal
COLO 205 colon = test system: COLO 205 colon
DU-145 prostate = test system: DU-145 prostate
EKVX NSCLC = test system: EKVX NSCLC
HCC-2998 colon = test system: HCC-2998 colon
HCT-116 colon = test system: HCT-116 colon
HCT-15 colon = test system: HCT-15 colon
HL-60(TB) leukemia = test system: HL-60(TB) leukemia
HOP-62 NSCLC = test system: HOP-62 NSCLC
HS 578T breast = test system: HS 578T breast
HT29 colon = test system: HT29 colon
IGROV1 ovarian = test system: IGROV1 ovarian
KM12 colon = test system: KM12 colon
LOX IMVI melanoma = test system: LOX IMVI melanoma
M14 melanoma = test system: M14 melanoma
MALME-3M melanoma = test system: MALME-3M melanoma
MCF7 breast = test system: MCF7 breast
MDA-MB-231 breast = test system: MDA-MB-231 breast
MDA-MB-435 = test system: MDA-MB-435
MOLT-4 leukemia = test system: MOLT-4 leukemia
NCI-H226 lung = test system: NCI-H226 lung
NCI-H23 lung = test system: NCI-H23 lung
NCI-H460 lung = test system: NCI-H460 lung
NCI-H522 lung = test system: NCI-H522 lung
NCI/ADR-RES ovarian = test system: NCI/ADR-RES ovarian
OVCAR-3 ovarian = test system: OVCAR-3 ovarian
OVCAR-4 ovarian = test system: OVCAR-4 ovarian
OVCAR-5 ovarian = test system: OVCAR-5 ovarian
OVCAR-8 ovarian = test system: OVCAR-8 ovarian
PC-3 prostate = test system: PC-3 prostate
RXF 393 renal = test system: RXF 393 renal
SF-268 CNS = test system: SF-268 CNS
SF-295 CNS = test system: SF-295 CNS
SF-539 CNS = test system: SF-539 CNS
SK-MEL-2 melanoma = test system: SK-MEL-2 melanoma
SK-MEL-28 melanoma = test system: SK-MEL-28 melanoma
SK-MEL-5 melanoma = test system: SK-MEL-5 melanoma
SK-OV-3 ovarian = test system: SK-OV-3 ovarian
SN12C renal = test system: SN12C renal
SNB-19 CNS = test system: SNB-19 CNS
SNB-75 CNS = test system: SNB-75 CNS
SR leukemia = test system: SR leukemia
SW-620 colon = test system: SW-620 colon
T-47D breast = test system: T-47D breast
TK-10 renal = test system: TK-10 renal
U251 CNS = test system: U251 CNS
UACC-257 melanoma = test system: UACC-257 melanoma
UACC-62 melanoma = test system: UACC-62 melanoma
UO-31 renal = test system: UO-31 renal

## CCC(C)C1NC(=O)C(CCNCS(=O)(=O)O)NC(=O)C(NC(=O)C(CCNCS(=O)(=O)O)NC(=O)C(NC(=O)C(CCNCS(=O)(=O)O)NC(=O)CCCCC(C)C)C(C)O)CCNC(=O)C(C(C)O)NC(=O)C(CCNCS(=O)(=O)O)NC(=O)C(CCNCS(=O)(=O)O)NC(=O)C(C(C)CC)NC1=O (stereo not drawn) ({Heptanoyl(6-Me)}-[ξDab(CH2SO3H)]T[ξDab(CH2SO3H)][Dab][ξDab(CH2SO3H)]II[ξDab(CH2SO3H)][ξDab(CH2SO3H)]T; lactam 4-C; configuration not given here)
786-0 renal
  GI50: 13 µM
  TGI: > 25 µM
A498 renal
  GI50: 7.07 µM
  TGI: > 25 µM
A549 NSCLC
  GI50: > 25 µM
  TGI: > 25 µM
ACHN renal
  GI50: > 25 µM
  TGI: > 25 µM
BT-549 breast
  GI50: 6.27 µM
  TGI: > 25 µM
CAKI-1 renal
  GI50: > 25 µM
  TGI: > 25 µM
COLO 205 colon
  GI50: 3.26 µM
  TGI: 8.85 µM
DU-145 prostate
  GI50: 7.09 µM
  TGI: 23.2 µM
EKVX NSCLC
  GI50: > 25 µM
  TGI: > 25 µM
HCC-2998 colon
  GI50: 5.28 µM
  TGI: 14.2 µM
HCT-116 colon
  GI50: 7.33 µM
  TGI: > 25 µM
HCT-15 colon
  GI50: > 25 µM
  TGI: > 25 µM
HL-60(TB) leukemia
  GI50: 5.23 µM
  TGI: 16.9 µM
HOP-62 NSCLC
  GI50: 8.74 µM
  TGI: > 25 µM
HS 578T breast
  GI50: 7.65 µM
  TGI: > 25 µM
HT29 colon
  GI50: 7.92 µM
  TGI: > 25 µM
IGROV1 ovarian
  GI50: 13.1 µM
  TGI: > 25 µM
KM12 colon
  GI50: 2.99 µM
  TGI: 9.55 µM
LOX IMVI melanoma
  GI50: 5.21 µM
  TGI: > 25 µM
M14 melanoma
  GI50: 5.72 µM
  TGI: 20.6 µM
MALME-3M melanoma
  GI50: > 25 µM
  TGI: > 25 µM
MCF7 breast
  GI50: 4.71 µM
  TGI: > 25 µM
MDA-MB-231 breast
  GI50: 5.82 µM
  TGI: > 25 µM
MDA-MB-435
  GI50: 0.93 µM
  TGI: 5.02 µM
MOLT-4 leukemia
  GI50: 8.47 µM
  TGI: > 25 µM
NCI-H226 lung
  GI50: 8.25 µM
  TGI: > 25 µM
NCI-H23 lung
  GI50: 7.41 µM
  TGI: > 25 µM
NCI-H460 lung
  GI50: 6.86 µM
  TGI: 22.1 µM
NCI-H522 lung
  GI50: 3.84 µM
  TGI: 14.1 µM
NCI/ADR-RES ovarian
  GI50: > 25 µM
  TGI: > 25 µM
OVCAR-3 ovarian
  GI50: 2.88 µM
  TGI: 8.06 µM
OVCAR-4 ovarian
  GI50: 11.3 µM
  TGI: > 25 µM
OVCAR-5 ovarian
  GI50: 24 µM
  TGI: > 25 µM
OVCAR-8 ovarian
  GI50: 9.66 µM
  TGI: > 25 µM
PC-3 prostate
  GI50: 7.97 µM
  TGI: > 25 µM
RXF 393 renal
  GI50: 7.47 µM
  TGI: > 25 µM
SF-268 CNS
  GI50: 6.88 µM
  TGI: > 25 µM
SF-295 CNS
  GI50: 6.66 µM
  TGI: > 25 µM
SF-539 CNS
  GI50: 7.16 µM
  TGI: > 25 µM
SK-MEL-2 melanoma
  GI50: 4.9 µM
  TGI: > 25 µM
SK-MEL-28 melanoma
  GI50: 2.72 µM
  TGI: > 25 µM
SK-MEL-5 melanoma
  GI50: 1.96 µM
  TGI: 11.4 µM
SK-OV-3 ovarian
  GI50: 8.13 µM
  TGI: > 25 µM
SN12C renal
  GI50: 11.2 µM
  TGI: > 25 µM
SNB-19 CNS
  GI50: 11.6 µM
  TGI: > 25 µM
SNB-75 CNS
  GI50: 1.58 µM
  TGI: > 25 µM
SR leukemia
  GI50: 1.32 µM
  TGI: > 25 µM
SW-620 colon
  GI50: 4 µM
  TGI: > 25 µM
T-47D breast
  GI50: > 25 µM
  TGI: > 25 µM
TK-10 renal
  GI50: > 25 µM
  TGI: > 25 µM
U251 CNS
  GI50: 8.05 µM
  TGI: > 25 µM
UACC-257 melanoma
  GI50: 11.7 µM
  TGI: > 25 µM
UACC-62 melanoma
  GI50: 7.44 µM
  TGI: > 25 µM
UO-31 renal
  GI50: > 25 µM
  TGI: > 25 µM
